Active and inactive are the calls of the source.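 Rule for the calls: active = AC50, the dose giving half-maximal effect, exceeds a fixed cutoff for a compound that rescues yeast growth under heat; inactive = the rest, inconclusive results apart.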

88 compounds from PubChem BioAssay AID463199 (Broad Institute, 2010) can be followed below.

For the assay, the system named is S. cerevisiae Burl-1 ts mutant growth, BacTiter-Glo, 38.5C 24 h. Put plainly: restored growth of temperature-sensitive Burl-1 yeast – whole organism, S. cerevisiae, Burl-1 ts mutant, luminescence, counter-screen for SUMOylation pathway inhibitor project, dose response (AID 463199). In general terms: A counterscreen serves to expose hits that act by an unwanted route or on another target.
In the case of `CCCOc1ccccc1C1NC(=O)NC(C)=C1C(=O)OCc1ccccc1` (stereo not drawn), the AC50 (usually the concentration at which the activity in the assay is half-maximal) is > 42 µM (inactive).
Then `N#CCCN(Cc1cccnc1)C(=O)Nc1cccc(Cl)c1`, with > 42 µM (inactive); and `CCOc1ncccc1-c1nc(-c2cccs2)no1`, with > 42 µM (inactive); and `CCN1CSC(=S)N(Cc2ccc(OC)cc2)C1`, with 7.78 µM.
For the compound `CCN(CC)c1ccc(Nc2cc3n(c(=O)n2)CCc2cc(OC)c(OC)cc2-3)cc1`, the AC50 was > 42 µM (inactive).
The result for `O=C(COC(=O)CSc1ccc([N+](=O)[O-])cc1)NC1CCCCCCC1` reads > 42 µM (inactive); that for `Cc1nc2ccccc2c(=O)n1CC(=O)N1CCOCC1`, > 42 µM (inactive); that for `CC1(C)NC(=O)N(CC(=O)O)C1=O`, > 42 µM (inactive).
Then `CCC(C)N1C(=O)CN(C2CCCCCC2)C(=O)C1c1ccccc1F` (stereo not drawn), with > 42 µM (inactive); and `COc1ccc(-n2c(-c3ccccc3)nc3ccccc3c2=O)cc1`, with > 42 µM (inactive).
For the compound `CC(C)C(=O)Nc1cccc(-c2nc3ncccc3o2)c1`, the AC50 is > 42 µM (inactive).
`COCCn1c(=NC(=O)c2ccc(S(=O)(=O)N3CCOCC3)cc2)sc2cc(S(N)(=O)=O)ccc21`: the AC50 was > 42 µM (inactive).
As for `O=C(N1CCOCC1)C1(S(=O)(=O)c2ccccc2)CC=CC1`, the AC50 was > 42 µM (inactive).
The result for `O=Nc1c(-c2cccc([N+](=O)[O-])c2)nc2ncccn12` reads > 42 µM (inactive); that for `O=C(OCc1nc2ccsc2c(=O)[nH]1)c1ccco1`, > 42 µM (inactive).
On to `COc1cc2c(cc1OC)CN(C(=O)Cc1c(F)cccc1Cl)CC2`, for which the AC50 is > 42 µM (inactive).
On to `COC(=O)[C@@H]1[C@@H](C(=O)OC)C2(c3ccccc3-c3ccccc32)N(c2ccc(Cl)cc2)N1C#N`, for which the AC50 is > 42 µM (inactive).
The result for `COC(=O)CCC(=O)OC1(C)C(=O)C=C2C=C(C3CC3)N(Cc3ccc4c(c3)OCO4)C=C2C1=O` (stereo not drawn) reads > 42 µM (inactive).
The result for `C=CCN1C(=O)/C(=C\c2ccc(C)cc2)N=C1SCC(=O)NCCC` reads > 42 µM (inactive); that for `CS(=O)(=O)N(CC(=O)N1CCCCCC1)Cc1ccc(Cl)cc1`, > 42 µM (inactive).
The result for `CCC(=O)c1c[nH]c(C(=O)NCCCn2ccnc2)c1` reads > 42 µM (inactive); that for `COc1ccc(-c2cc(C(F)(F)F)n3ncc(C(=O)O)c3n2)cc1OC`, > 42 µM (inactive).
Take `C[C@H]1O[C@H]1P(=O)(O)O`: the AC50 is > 42 µM (inactive).
The result for `CCOC(=O)C1=C[C@]2(CC)CCCN3CCc4c(n1c1ccccc41)[C@@H]32` reads > 42 µM (inactive); that for `Cc1c(C2(O)CCCCC2)[nH]c2ccc(C#N)cc12`, > 42 µM (inactive); that for `Cc1cccc(NC(=O)CCc2ccccc2)c1`, > 42 µM (inactive).
For `Cc1cc(C)n(C(=O)CNC(=O)c2ccc3c(c2)OCCO3)n1`, the AC50 is > 42 µM (inactive).
With `CN(C)C(=O)c1coc2nc3ccccc3nc12`, the AC50 is > 42 µM (inactive).
The result for `O=C(Cc1ccc(Cl)cc1)NC(=S)Nc1ccccc1N1CCOCC1` reads > 42 µM (inactive).
The result for `O=C(COC(=O)[C@@H]1CC(O)CN1S(=O)(=O)c1ccccc1[N+](=O)[O-])Nc1ccc2ccccc2c1` (stereo partly drawn) reads > 42 µM (inactive); that for `O=C(NCc1ccccn1)C1Nc2ccc(C(F)(F)F)cc2C2C=CCC12` (stereo not drawn), > 42 µM (inactive).
For `COC(=O)CCCC(=O)NCC1(N(C)Cc2ccccc2)Cc2ccccc2C1`, the AC50 was > 42 µM (inactive).
With `N#CC(C#N)=CN=c1ccn(Cc2ccc(Cl)cc2Cl)cc1`, the AC50 is > 42 µM (inactive).
Consider `CCOc1cc(NC(=O)c2cccs2)c(OCC)cc1NC(=O)CCC(=O)NCCN1CCOCC1`, for which the AC50 is > 42 µM (inactive).
As for `CCC(C)c1ccc(S(=O)(=O)N2CCN(C(=O)COc3ccc4c(C)cc(=O)oc4c3)CC2)cc1` (stereo not drawn), the AC50 is > 42 µM (inactive).
For the compound `CN1C(=S)SC2CS(=O)(=O)CC21C` (stereo not drawn), the AC50 was > 21 µM (inactive).
With `O=c1c2ccccc2c2ccccc2c(=O)n1-c1ccccc1`, the AC50 is > 42 µM (inactive).
The result for `COc1cccc(CN2CCN(C(=O)c3cccc4ccccc34)CC2)c1OC` reads > 42 µM (inactive); that for `COC(=O)c1cccc(NC(=O)CN(c2ccc3c(c2)OCO3)S(C)(=O)=O)c1C`, > 42 µM (inactive); that for `Cc1cc(C)c(OCC(=O)N/N=C/c2ccco2)c(C)c1`, > 42 µM (inactive).
Consider `CC1(C)CC(=O)c2cnc(NC(=O)CSc3nc4ccccc4o3)nc2C1`, for which the AC50 is > 42 µM (inactive).
Consider `Cc1nn(C)c(Cl)c1CN1CCN(CCC(C)C)C(CCO)C1` (stereo not drawn), for which the AC50 is > 42 µM (inactive).
On to `CCN1CCCC1CN(Cc1cc2ccc(C)cc2[nH]c1=O)C(=S)Nc1ccc(OC)cc1OC` (stereo not drawn), for which the AC50 was > 42 µM (inactive).
The result for `CC(C)(C)n1cnc2cc(NC(=O)c3ccc(Cl)cc3)ccc21` reads > 42 µM (inactive); that for `CN(C)C(=O)c1cc(C(=O)c2ccc(C(F)(F)F)cc2F)c[nH]1`, > 42 µM (inactive); that for `COc1ccccc1-n1c(O)c(/C=C2\C=Nc3ccccc32)c(=O)[nH]c1=O`, > 42 µM (inactive).
The result for `Cc1nc2c(-c3ccc(F)cc3)cnn2c2c1CCC2` reads > 42 µM (inactive); that for `CCOc1ccc(NC(=O)CN(C)C(=O)c2ccc(OCc3ccccc3)c(OC)c2)cc1OCC`, > 42 µM (inactive); that for `COCCn1c(C)cc(C(=O)CN2C(=O)NC3(CCCCCCC3)C2=O)c1C`, > 42 µM (inactive).
For `Nc1nnnn1CC(=O)N/N=C/c1cccs1`, the AC50 is > 42 µM (inactive).
Turning to `COc1cc(CN2CCC(Oc3cc(C(=O)NC4CC4)ccc3OC)CC2)cc(OC)c1`, the AC50 was 16.9 µM.
With `Cc1ccc(Oc2ccccc2NC(=O)C2=COCCO2)cc1`, the AC50 is > 42 µM (inactive).
In the case of `CN1c2ccccc2-c2nc3ccccc3n2C1c1ccncc1` (stereo not drawn), the AC50 is > 42 µM (inactive).
For the compound `O=C(c1ccc([N+](=O)[O-])o1)N1CCN(c2nc3c(Cl)cccc3s2)CC1`, the AC50 was > 42 µM (inactive).
With `O=C(Nc1nc2ccccc2s1)c1cccc(S(=O)(=O)N2CCc3ccccc32)c1`, the AC50 was > 42 µM (inactive).
Regarding `CCN(CC)c1ccc(N=Cc2c(O)n(Cc3ccccc3)c(=O)[nH]c2=O)cc1`, the AC50 was > 42 µM (inactive).
Then `CCN1CCN(C(=O)c2ccc3nc(-c4ccccc4)c(-c4ccccc4)nc3c2)CC1`, with > 42 µM (inactive); and `FC(F)(F)c1nc2ccccc2n2c(-c3ccc(Cl)cc3Cl)nnc12`, with > 42 µM (inactive).
Then `CCN1CCN(CC(=O)Nc2cccc(C)c2C)C(=O)C1=O`, with > 42 µM (inactive).
Then `COc1cc2c(cc1OC)CN(S(=O)(=O)c1cccc(F)c1)CC2`, with > 42 µM (inactive); and `COc1cc(NC(=O)CN2CCN(CC(=O)Nc3ccccc3OC)CC2)cc(OC)c1`, with > 42 µM (inactive).
As to `O=C(c1cc(-c2ccc(Cl)c(Cl)c2)on1)N1CCN(c2ccccc2)CC1`, the AC50 is > 42 µM (inactive).
Then `NC(=O)C1CCCN(C(=S)Nc2cccc3ccccc23)C1` (stereo not drawn), with > 42 µM (inactive); and `COc1ccc(OC)c(Cc2nnc(CCC(=O)NCc3ccsc3)o2)c1`, with > 42 µM (inactive); and `Cn1cccc1CC(=O)N/N=C/c1cccc([N+](=O)[O-])c1`, with > 42 µM (inactive).
On to `O=C(CCN1CCc2ccccc2C1)Nc1ccc2c(c1)OCO2`, for which the AC50 is > 42 µM (inactive).
Then `COc1cc(S(=O)(=O)NC2CCCC2)c(OC)cc1C`, with > 42 µM (inactive); and `CCCCC(=O)Nc1nnc(/C=C/c2ccc(OC)cc2)s1`, with > 42 µM (inactive).
With `CC(=O)Nc1ccc(CN2CCCC(CO)(Cc3cccc(Cl)c3)C2)cc1` (stereo not drawn), the AC50 is > 42 µM (inactive).
Then `Clc1ccc(CN(Cc2ccccc2)C(c2cccs2)c2nnnn2C2CCCC2)cc1` (stereo not drawn), with > 42 µM (inactive).
Turning to `CCOC(=O)c1cnc2c(C)c(Cl)ccc2c1N1CCOCC1`, the AC50 was > 42 µM (inactive).
In the case of `CCNC(=S)Nc1ccc(C)c(S(=O)(=O)Nc2ccccc2OC)c1`, the AC50 is > 42 µM (inactive).
The result for `COc1ccc(C)cc1NC(=O)Cn1c(=O)oc2ccccc21` reads > 42 µM (inactive); that for `CCN(CC)S(=O)(=O)c1cc(NC(=O)COC(=O)CCc2nc3ccccc3s2)ccc1C`, > 42 µM (inactive); that for `CCn1cc(C(=O)N(C)c2ccc(OC)cc2OC)c2cc(OC)c(OC)cc2c1=O`, > 42 µM (inactive).
Then `Cc1ccc(S(=O)(=O)Oc2ccc(/C=C3\N=C(c4cccc(C)c4)OC3=O)cc2)cc1`, with > 42 µM (inactive); and `Cc1ccccc1-n1c(-c2cccnc2)n[nH]c1=S`, with > 42 µM (inactive); and `Cc1sc(NC(=O)c2ccc(F)cc2)c(CN2CCCCCC2)c1C`, with > 42 µM (inactive).
Regarding `CCCCn1c(=O)[nH]c(=O)c2c1nc(COc1ccc(C#N)cc1)n2CCC`, the AC50 is > 42 µM (inactive).
The result for `Cc1cc(C)c[n+](-c2nc3ccccc3nc2[N-]S(=O)(=O)c2ccc(Br)s2)c1` reads > 42 µM (inactive); that for `O=C(O)c1c(C(=O)O)c(-c2ccc(F)cc2)n2c1CCC2`, > 42 µM (inactive).
The result for `COc1ccc(OCC(=O)Nc2ccc(C)cc2)cc1` reads > 42 µM (inactive); that for `CN1C(=O)c2cccc3c(Cl)ccc(c23)C1=O`, > 42 µM (inactive); that for `NS(=O)(=O)c1cccc(NC(=O)c2cccnc2Oc2ccccc2)c1`, > 42 µM (inactive).
Then `O=C(CSc1nnc(-c2cccs2)n1-c1ccccc1)c1ccc2c(c1)OCCO2`, with > 42 µM (inactive); and `CCOc1ccc(C(=O)NNC2CC(=O)N(CCc3ccccc3)C2=O)cc1OC` (stereo not drawn), with > 42 µM (inactive); and `CC1CCN(CCCCOc2cccc(Br)c2)CC1`, with > 42 µM (inactive).
As to `CCOc1ccccc1Nc1nnc(SCc2nnc(-c3cc(OC)c(OC)c(OC)c3)o2)s1`, the AC50 was > 42 µM (inactive).
